Data reported in US20220257595A1, “MACITENTAN FOR USE IN TREATING PORTOPULMONARY HYPERTENSION” (ACTELION PHARMACEUTICALS LTD, priority 2019, published 2022).

Tests used:
patients with PoPH [1] = assay: PORTICO: serum NT-proBNP (incl. post-hoc 300 ng/L threshold shift); assay type: in vivo, human
Method: (v) Serum NT-proBNP: A blood sample was drawn at Baseline (Visit 2/Randomization), EOT-DB, and/or EOT-OL (whichever came last) for the analysis of serum NT-proBNP. Serum NT-proBNP samples were shipped to the central laboratory on dry ice as soon as possible after the blood sample had been drawn or stored frozen at −20° C. (−4° F.)±2° C. (±3.6° F.) until the shipment.
Statistical analysis: The change from baseline to Week 12 in mRAP, mPAP, cardiac index, TPR and SVO2 were analyzed on the FAS (with imputation) using an ANCOVA with factors for treatment group, background PAH-specific therapy at baseline (Yes/No as per IXRS, randomization stratification factor), region (Europe/North America/Latin America as per IXRS, randomization stratification factor) and a covariate for baseline corresponding variable. Other RHC variables are listed only. WHO FC is summarized on the FAS (with imputation) by time point and treatment group using frequency tables. […] Worsening was analyzed using a logistic regression model (exact) with covariates for treatment group, background PAH-specific therapy at baseline (Yes/No as per IXRS, randomization stratification factor) and region (Europe/North America/Latin America as per IXRS, randomization stratification factor). […] Change from baseline in 6MWD (up to Week 12) was analyzed using a mixed-effect model repeated measure (MMRM) with factors for treatment group, time point, treatment by time interaction, background PAH-specific therapy at baseline (Yes/No as per IXRS, randomization stratification factor) and region (Europe/North America/Latin America as per IXRS, randomization stratification factor), and covariates for baseline 6MWD and WHO FC. […] The ratio versus baseline in NT-proBNP was log-transformed and analyzed using an ANCOVA with covariates for treatment group, background PAH-specific therapy at baseline (Yes/No as per IXRS, randomization stratification factor), region (Europe/North America/Latin America as per IXRS, randomization stratification factor) and baseline log NT-proBNP. […]

patients with PoPH [2] = assay: Post-hoc: MELD exception eligibility (mPAP/PVR); assay type: in vivo, human
Method: Post-Hoc, Exploratory Criteria: • Proportion of patients with NT-proBNP decrease from above 300 ng/L to below this threshold • Odds ratio for improvement to a more favorable liver transplant perioperative risk category • Odds ratio for becoming eligible for the MELD exception • Odds ratio for improvement to a more favorable waitlist mortality risk category
Risk categories related to liver transplant (transplant perioperative risk classification, MELD exception eligibility and waitlist mortality risk) were analyzed descriptively by treatment group using shift tables from baseline to Week 12 with categories as defined in Example 1.
LT perioperative risk classification, MELD exception eligibility, and waitlist mortality analyses were performed after the database lock and SDTMs delivery for the Double-Blind period. Number (%) of patients in following categories were summarized and presented in shift tables. The estimated odds ratio for risk improvement and corresponding 95% confidence intervals were obtained from an exact logistic regression (macitentan vs placebo) with factors for treatment and risk category at baseline.
In general, liver grafts are attributed in priority to patients who need a liver transplant the most urgently. This assessment lies mostly on the Model for End-stage Liver Disease (MELD) score: the higher the score, the higher the patient's priority on the waiting list. In PoPH, by the time MELD score is high enough to obtain a liver graft, the hemodynamic state is generally too severely impaired for the procedure. In the US, a PoPH MELD exception rule (MELD exception) is in place to facilitate access to a liver graft to patients with PoPH who attain mPAP ≤[…] and PVR ≤400 dyn·sec·cm^−5 with PAH treatment. Patients are priority-ranked on the waitlist with a higher MELD score than their actual score. This allows obtaining a liver graft at a time when liver impairment is moderate, before cardiopulmonary impairment becomes a contraindication to transplant.

[3] = prior nonclinical and clinical studies; cited from earlier work
[4] = Total, Full analysis set, 10 mg, N = 43

Structure (SMILES): CCCNS(=O)(=O)Nc1ncnc(OCCOc2ncc(Br)cn2)c1-c1ccc(Br)cc1 [macitentan, N-[5-(4-Bromophenyl)-6-[2-[(5-bromo-2-pyrimidinyl)oxy]ethoxy]-4-pyrimidinyl]-N′-propylsulfamide]
- Patients with NT-proBNP above 300 ng/L at baseline decreasing to below threshold after 12 weeks (patients with PoPH [1]; 6 of 16 macitentan patients, FAS no imputation, post-hoc): 37.5%
- Geometric mean ratio of Week 12 to baseline NT-proBNP (patients with PoPH [1]; FAS with imputation, macitentan group): 0.86
- NT pro-BNP shift: Week 12 Category 2 (patients with PoPH [1]; [4]): 9 n (%)
- Liver transplant (MELD exception) eligibility based on mPAP/PVR: Week 12 Category 2 (mPAP ≤ 35 and PVR ≤ 400 dyn · sec/cm^5 = NO) (patients with PoPH [2]; Baseline Category 1 (n = 1), Full analysis set, 10 mg, N = 43): 0 n (%)
- Liver transplant (MELD exception) eligibility based on mPAP/PVR: Week 12 Category 1 (mPAP ≤ 35 and PVR ≤ 400 dyn · sec/cm^5 = YES) (patients with PoPH [2]; [4]): 9 n (%)
- Odds of becoming eligible for the MELD exception, macitentan vs placebo (patients with PoPH [2]; Week 12, exact logistic regression): 4.51 times
- Patients not meeting MELD exception criteria at baseline who met them (mPAP ≤35 mmHg and PVR ≤400 dyn·sec·cm^−5) (patients with PoPH [2]; after 12 weeks, FAS no imputation, 8 patients): 18.6%
- Liver transplant eligibility: Between-treatment odds ratio for improvement, OR (patients with PoPH [2]; macitentan vs placebo, exact logistic regression, 95% CI 0.822, 46.462, p-value 0.0958): 4.512
- Toxicities associated with macitentan treatment [3]: associated with teratogenicity, dose-related anemia/decrease in hemoglobin concentration, and hepatotoxicity
